Active and inactive are the calls of the source. No cut-off for these calls is given here.
How the values were obtained:
[1] = Antioxidant activity assessed as ABTS radical scavenging activity by spectrophotometry; assay type: physicochemical
[2] = Antioxidant activity assessed as galvinoxyl radical scavenging activity measured over 30 mins by spectrophotometry; assay type: physicochemical
[3] = Antioxidant activity assessed as DPPH radical scavenging activity measured every minute over 45 mins by spectrophotometry; assay type: physicochemical
[4] = Iron chelation activity of compound assessed as [Fe(ferrozine)3]2+ complex formation by spectrophotometry; assay type: physicochemical
SH-SY5Y [5] = test: Neuroprotective activity in human SH-SY5Y cells assessed as inhibition of 6-OH-DA-induced cytotoxicity at 10 uM compound incubated for 1 hr followed by 24 hrs incubation with 100 uM 6-OH-DA by MTT assay; assay type: functional, cell-based
SH-SY5Y [6] = test: Neuroprotective activity in human SH-SY5Y cells assessed as inhibition of 6-OH-DA-induced cytotoxicity at 1 uM compound incubated for 1 hr followed by 24 hrs incubation with 100 uM 6-OH-DA by MTT assay; assay type: functional, cell-based
SH-SY5Y [7] = test: Cytotoxicity against human SH-SY5Y cells at 1 and 10 uM after 24 hrs by MTT assay; assay type: cell-based

SMILES	IC50 [1] [µM]	IC50 [2] [µM]	IC50 [3] [µM]	Activity [4]	inhibition (SH-SY5Y [5])	inhibition (SH-SY5Y [6])	Activity (SH-SY5Y [7])
O=C(O)/C=C/c1ccc(O)c(O)c1 [CAFFEIC ACID]	17.5	27	21.7	Active			
COc1cc(/C=C/C(=O)O)ccc1O [FERULATE]	23.9	26.5	49.3				
COc1ccc(/C=C/C=C/C(=O)O)cc1OC	> 50		> 75		inactive	inactive	Non-toxic
COc1cc(/C=C/C=C/C(=O)O)ccc1O	19.7	4.8	42.5		Active		Non-toxic

Stronger by IC50 [1], values ahead:

IC50 [1] [µM]	IC50 [2] [µM]	IC50 [3] [µM]	Activity [4]	SMILES	inhibition (SH-SY5Y [5])	inhibition (SH-SY5Y [6])	Activity (SH-SY5Y [7])
11.1	2.5	18.2	Active	O=C(O)/C=C/C=C/c1ccc(O)c(O)c1 [DEMETHYLENATED PIPERIC ACID]	Active	Active	Non-toxic
2.8	3.4	30.8		Cc1c(C)c2c(c(C)c1O)CCC(C)(C(=O)O)O2 (racemic) [TROLOX]			

Source: ChEMBL document CHEMBL3739425, “Exploring cinnamic acid scaffold: development of promising neuroprotective lipophilic antioxidants” (Medchemcomm, 2015)
